Results taken from patent US8822414B2, “Heterocyclic compounds suitable for the treatment of dyslipidemia” (Cadila Healthcare Limited, priority 2010, dated 2014).

Target: pro-protein convertase of the subtype nine binding to recombinant LDLR-AB domain (Homo sapiens, UniProt Q8NBP7)
Assay: in vitro quantitative solid phase binding assay (ELISA) of the subtype nine pro-protein convertase to immobilized LDLR
Conditions: for inhibition at 5 µM: Concentration 5 μM
Procedure: The in vitro binding assay described hereinafter is a quantitative solid phase binding assay for determining the efficacy of the compounds. Plates were pre-coated with a recombinant LDLR-AB domain, which binds to the gene pro-protein convertase of the subtype nine. Test compound at different concentrations was added to the subtype gene and added to LDLR immobilized on the wells. The amount of bound gene is measured by binding it with biotinylated anti-His-tag monoclonal antibody, followed by binding with horseradish peroxidase conjugated streptavidin substrate. The color was quantified by ELISA reader at […] which reflects the relative amount of “the gene” that binds to LDLR in presence and absence of the inhibitor. EC50 values were calculated by nonlinear regression analysis using graph pad prism software. Each concentration point represents values in duplicates.

pro-protein convertase of the subtype nine binding to recombinant LDLR-AB domain, sequence (Q8NBP7 153-692): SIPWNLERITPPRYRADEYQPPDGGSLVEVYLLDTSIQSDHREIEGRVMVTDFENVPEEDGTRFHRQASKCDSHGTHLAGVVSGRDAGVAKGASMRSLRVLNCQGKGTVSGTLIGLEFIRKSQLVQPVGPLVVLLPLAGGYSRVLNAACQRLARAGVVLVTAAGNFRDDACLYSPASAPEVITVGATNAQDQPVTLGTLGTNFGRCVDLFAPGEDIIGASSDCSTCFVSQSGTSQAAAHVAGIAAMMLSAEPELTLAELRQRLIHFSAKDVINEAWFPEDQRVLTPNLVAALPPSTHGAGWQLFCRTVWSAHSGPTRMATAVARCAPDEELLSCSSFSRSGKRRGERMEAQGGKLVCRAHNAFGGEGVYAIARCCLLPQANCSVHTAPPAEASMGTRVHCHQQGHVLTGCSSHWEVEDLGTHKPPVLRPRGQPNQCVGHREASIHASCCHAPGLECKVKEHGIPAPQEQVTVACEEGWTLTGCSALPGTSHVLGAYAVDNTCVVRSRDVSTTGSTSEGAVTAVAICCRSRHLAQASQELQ
pro-protein convertase of the subtype nine binding to recombinant LDLR-AB domain, sequence (Q8NBP7 31-152 partner limits assumed): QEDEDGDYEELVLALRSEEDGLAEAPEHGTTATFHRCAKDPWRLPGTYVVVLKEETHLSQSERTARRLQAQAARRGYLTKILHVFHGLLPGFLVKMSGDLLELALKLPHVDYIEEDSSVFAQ

| Structure (SMILES) | inhibition at 1 µM (Concentration 1 μM) [%] | inhibition at 10 µM (Concentration 10 μM) [%] | inhibition at 100 µM (Concentration 100 μM) [%] | inhibition at 5 µM [%] | % Inhibition (Concentration 1 μM) [%] | % Inhibition (Concentration 10 μM) [%] | % Inhibition (Concentration 100 μM) [%] |
| --- | --- | --- | --- | --- | --- | --- | --- |
| CC(=NOCc1ccc(C(F)(F)F)cc1)c1ccc(NCC(=O)NCC2CCOCC2)nc1 [Example 4, N-((tetrahydro-2H-pyran-4-yl)methyl)-2-((5-(1-(((4-(trifluoromethyl)benzyl)oxy)imino)ethyl)pyridin-2-yl)amino)acetamide] | 34 | 39 | 51 | – | – | – | – |
| CCC(=NOCc1ccc(C(F)(F)F)cc1)c1ccc(NCC(=O)NCC2CCOCC2)cc1 [Example 5, N-((tetrahydro-2H-pyran-4-yl)methyl)-2-((4-(1-(((4-(trifluoromethyl)benzyl)oxy)imino)propyl)phenyl)amino)acetamide] | 34 | 40 | 50 | – | – | – | – |
| Cc1cc(C(Cc2ccccc2)=NOCc2ccc(C(F)(F)F)cc2)ccc1OCC(=O)NCC1CCOCC1 [Example 10, 2-(2-methyl-4-(2-phenyl-1-(((4-(trifluoromethyl)benzyl)oxy)imino)ethyl)phenoxy)-N-((tetrahydro-2H-pyran-4-yl)methyl)acetamide] | 3 | 35 | 51 | 18 | – | – | – |
| O=C(COc1ccc(C(Cc2ccccc2)=NOCc2ccc(C(F)(F)F)cc2)cc1)NCC1CCOCC1 [Example 11, 2-(4-(2-phenyl-1-(((4-(trifluoromethyl)benzyl)oxy)imino)ethyl)phenoxy)-N-((tetrahydro-2H-pyran-4-yl)methyl)acetamide] | 20 | 49 | 61 | 23 | – | – | – |
| O=C(COc1ccc(C(Cc2ccccc2)=NOCc2cccc(C(F)(F)F)c2)cc1)NCC1CCOCC1 [Example 12, 2-(4-(2-phenyl-1-(((3-(trifluoromethyl)benzyl)oxy)imino)ethyl)phenoxy)-N-((tetrahydro-2H-pyran-4-yl)methyl)acetamide] | 19 | 55 | 79 | – | – | – | – |
| O=C(COc1ccc(C(Cc2ccncc2)=NOCc2ccc(C(F)(F)F)cc2)cc1)NCC1CCOCC1 [Example 13, 2-(4-(2-(pyridin-4-yl)-1-(((4-(trifluoromethyl)benzyl)oxy)imino)ethyl)phenoxy)-N-((tetrahydro-2H-pyran-4-yl)methyl)acetamide] | 22 | 32 | 48 | – | – | – | – |
| O=C(COc1ccc(C(CN2CCOCC2)=NOCc2ccc(C(F)(F)F)cc2)cc1)NCC1CCOCC1 [Example 14, 2-(4-(2-morpholino-1-(((4-(trifluoromethyl)benzyl)oxy)imino)ethyl)phenoxy)-N-((tetrahydro-2H-pyran-4-yl)methyl)acetamide] | 15 | 31 | 41 | – | – | – | – |
| O=C(COc1ccc(C(CN2CCSCC2)=NOCc2ccc(C(F)(F)F)cc2)cc1)NCC1CCOCC1 [Example 15, N-((tetrahydro-2H-pyran-4-yl)methyl)-2-(4-(2-thiomorpholino-1-(((4-(trifluoromethyl)benzyl)oxy)imino)ethyl)phenoxy)acetamide] | 25 | 37 | 39 | – | – | – | – |
| Cc1cc(C(Cc2ccsc2)=NOCc2ccc(C(F)(F)F)cc2)ccc1OCC(=O)NCC1CCOCC1 [Example 16, 2-(2-methyl-4-(2-(thiophen-3-yl)-1-(((4-(trifluoromethyl)benzyl)oxy)imino)ethyl)phenoxy)-N-((tetrahydro-2H-pyran-4-yl)methyl)acetamide] | 10 | 35 | 61 | 21 | – | – | – |
| O=C(COc1ccc(C=NOCc2ccc(C(F)(F)F)cc2)cc1)NCC1CCOCC1 [Example 17, N-((tetrahydro-2H-pyran-4-yl)methyl)-2-(4-((((4-(trifluoromethyl)benzyl)oxy)imino)methyl)phenoxy)acetamide] | 13 | 19 | 44 | – | – | – | – |
| O=C(COc1ccc(C=NOCc2ccc(C(F)(F)F)cc2)cn1)NCC1CCOCC1 [Example 19, N-((tetrahydro-2H-pyran-4-yl)methyl)-2-((5-((((4-(trifluoromethyl)benzyl)oxy)imino)methyl)pyridin-2-yl)oxy)acetamide] | – | 40 | 46 | – | – | – | – |
| CC(=NOCc1ccc(C(F)(F)F)cc1)c1ccc(NCC(=O)NCC2CCOCC2)cc1 [Example 20, N-((tetrahydro-2H-pyran-4-yl)methyl)-2-((4-(1-(((4-(trifluoromethyl)benzyl)oxy)imino)ethyl)phenyl)amino)acetamide] | 20 | 34 | 57 | – | – | – | – |
| CC(=NOCc1ccc(C#N)cc1)c1ccc(OCC(=O)NCC2CCOCC2)nc1 [Example 21, 2-((5-(1-(((4-cyanobenzyl)oxy)imino)ethyl)pyridin-2-yl)oxy)-N-((tetrahydro-2H-pyran-4-yl)methyl)acetamide] | – | – | 15 | – | – | – | – |
| CCC(=NOCc1ccc(C(F)(F)F)cc1)c1ccc(NCC(=O)NCC2CCOCC2)nc1 [Example 23, N-((tetrahydro-2H-pyran-4-yl)methyl)-2-((5-(1-(((4-(trifluoromethyl)benzyl)oxy)imino)propyl)pyridin-2-yl)amino)acetamide] | 30 | 42 | 47 | – | – | – | – |
| CCC(=NOCc1ccccc1)c1ccc(OCC(=O)NCC2CCOCC2)nc1 [Example 24, 2-((5-(1-((benzyloxy)imino)propyl)pyridin-2-yl)oxy)-N-((tetrahydro-2H-pyran-4-yl)methyl)acetamide] | 24 | 28 | 52 | – | – | – | – |
| CCC(=NOCc1ccc(C)cc1)c1ccc(OCC(=O)NCC2CCOCC2)nc1 [Example 25, 2-((5-(1-(((4-methylbenzyl)oxy)imino)propyl)pyridin-2-yl)oxy)-N-((tetrahydro-2H-pyran-4-yl)methyl)acetamide] | 28 | 34 | 50 | – | – | – | – |
| CCC(=NOCc1ccc(OC)cc1)c1ccc(OCC(=O)NCC2CCOCC2)nc1 [Example 26, 2-((5-(1-(((4-methoxybenzyl)oxy)imino)propyl)pyridin-2-yl)oxy)-N-((tetrahydro-2H-pyran-4-yl)methyl)acetamide] | 45 | 45 | 52 | – | – | – | – |
| CCC(=NOCc1ccc(F)cc1)c1ccc(OCC(=O)NCC2CCOCC2)nc1 [Example 27, 2-((5-(1-(((4-fluorobenzyl)oxy)imino)propyl)pyridin-2-yl)oxy)-N-((tetrahydro-2H-pyran-4-yl)methyl)acetamide] | 10 | 15 | 29 | – | – | – | – |
| CCC(=NOCc1ccc(C#N)cc1)c1ccc(OCC(=O)NCC2CCOCC2)nc1 [Example 28, 2-((5-(1-(((4-cyanobenzyl)oxy)imino)propyl)pyridin-2-yl)oxy)-N-((tetrahydro-2H-pyran-4-yl)methyl)acetamide] | – | – | 23 | – | – | – | – |
| COCC(=NOCc1ccc(C(F)(F)F)cc1)c1ccc(OCC(=O)NCC2CCOCC2)cc1 [Example 30, 2-(4-(2-methoxy-1-(((4-(trifluoromethyl)benzyl)oxy)imino)ethyl)phenoxy)-N-((tetrahydro-2H-pyran-4-yl)methyl)acetamide] | – | – | 36 | – | – | – | – |
| Cc1ccc(CON=C(Cc2ccccc2)c2ccc(OCC(=O)NCC3CCOCC3)c(C)c2)cc1 [Example 32, 2-(2-methyl-4-(1-(((4-methylbenzyl)oxy)imino)-2-phenylethyl)phenoxy)-N-((tetrahydro-2H-pyran-4-yl)methyl)acetamide] | 14 | 35 | 48 | – | – | – | – |
| Cc1ccc(CON=C(Cc2ccccc2)c2ccc(OCC(=O)NCC3CCOCC3)cc2)cc1 [Example 33, 2-(4-(1-(((4-methylbenzyl)oxy)imino)-2-phenylethyl)phenoxy)-N-((tetrahydro-2H-pyran-4-yl)methyl)acetamide] | 10 | 10 | 28 | – | – | – | – |
| Cc1cc(C(Cc2ccccc2)=NOCc2ccc(F)cc2)ccc1OCC(=O)NCC1CCOCC1 [Example 34, 2-(4-(1-(((4-fluorobenzyl)oxy)imino)-2-phenylethyl)-2-methylphenoxy)-N-((tetrahydro-2H-pyran-4-yl)methyl)acetamide] | 7 | 13 | 32 | – | – | – | – |
| O=C(COc1ccc(C(Cc2ccccc2)=NOCc2ccc(F)cc2)cc1)NCC1CCOCC1 [Example 35, 2-(4-(1-(((4-fluorobenzyl)oxy)imino)-2-phenylethyl)phenoxy)-N-((tetrahydro-2H-pyran-4-yl)methyl)acetamide] | 22 | 13 | 25 | – | – | – | – |
| Cc1cc(C(Cc2ccccc2)=NOCc2ccc(Cl)cc2)ccc1OCC(=O)NCC1CCOCC1 [Example 36] | – | – | – | – | 6 | 9 | 36 |
| O=C(COc1ccc(C(Cc2ccccc2)=NOCc2ccc(Cl)cc2)cc1)NCC1CCOCC1 [Example 37, 2-(4-(1-(((4-chlorobenzyl)oxy)imino)-2-phenylethyl)phenoxy)-N-((tetrahydro-2H-pyran-4-yl)methyl)acetamide] | 20 | 26 | 28 | – | – | – | – |
| Cc1cc(C(Cc2ccccc2)=NOCc2ccc(OC(F)(F)F)cc2)ccc1OCC(=O)NCC1CCOCC1 [Example 38, 2-(2-methyl-4-(2-phenyl-1-(((4-(trifluoromethoxy)benzyl)oxy)imino)ethyl)phenoxy)-N-((tetrahydro-2H-pyran-4-yl)methyl)acetamide] | – | 19 | 38 | – | – | – | – |
